# Legend:
# Assay type in all cases: cell-based
# [1] = tested on: monkey meibomian gland epithelial cell; experiment: Test Example 8: increase in number of monkey meibomian gland epithelial cells (Cell Counting Kit-8); conditions: 3 x 48 hours; for Cell proliferation (%): no addition group = 100%, average ± standard deviation, N = 5
# Excerpt: For studying the effect of promoting cell proliferation by each test substance, a culture medium prepared by removing the supplement attached to DK-SFM, from DK-SFM, was used as a basal medium, while as a positive control for confirming the cell proliferation promoting effect, a culture medium with the supplement added thereto (basal medium+supplement) was used according to instructions of an DK-SFM preparation protocol. […] In the test, a monkey meibomian gland epithelial cell which had been cultured to subconfluent, suspended in a cell banker (Nippon Zenyaku Kogyo Co., Ltd.), and cryopreserved in liquid nitrogen was used. The cell which had been cryopreserved was thawed, and transferred to a 50 mL centrifuge tube and a 10-fold amount of DK-SFM was added thereto. […] Each 64 μL of this cell suspension was dispensed into each well so that the cell number per bottom area (0.32 cm^2) of the collagen-treated 96-well culture dish for tissue culture became 4×10^4 cells/cm^2. […] After 48 hours from initial culture medium exchange, the culture medium was exchanged with a freshly prepared culture medium of each of [1] to [4]. Further, after 48 hours therefrom, the culture medium was exchanged again with a freshly prepared culture medium of each of [1] to [4].
# [2] = tested on: normal human corneal epithelial cell; experiment: Test Example 5: increase in cell number, normal human corneal epithelial cell, 24 hours (Cell Counting Kit-8); conditions: no addition group = 100%, average ± standard deviation, N = 3 to 4
# Procedure: A normal human corneal epithelial cell (KURABO) was used.
# As the test substance, the following compounds were used. PPARδ agonist: L-165041 (Sigma-Aldrich), GW-501516 (Alexis)
# In addition, as a positive control for confirming the cell proliferation promoting effect, a medium in which a mouse-derived epithelial growth factor (mEGF) contained in an HCGS proliferation additive set (KURABO) was added to a basal medium (basal medium+1 ng/mL mEGF) was used.
# This cell suspension was seeded on a fibronectin-coated multiwell plate (24 well, BECTON DICKINSON) so that the cell number became 2×10^4 cells/500 μL/well (since the bottom area is 2 cm^2, the number is 1×10^4 cells/cm^2).
# Further, 24 hours thereafter, the culture medium was exchanged with each 400 μL of the following culture media. • [1] Only basal medium (no addition group) • [2] Basal medium+mEGF (final concentration: 1 ng/mL; positive control group) • [3] Basal medium+L-165041 (final concentration: 0.01 μM and 0.1 μM) • [4] Basal medium+GW-501516 (final concentration: 0.001 μM and 0.01 μM)
# [3] = tested on: rabbit corneal epithelial cell; experiment: Test Example 1: increase in cell number, cultured rabbit corneal epithelial cell (Cell Counting Kit-8); conditions: 48 hours, no addition group = 100%, average ± standard deviation, N = 5
# Procedure: A male rabbit (Japanese white, […] LABES Co., Ltd.) was used. The experimental animal was used according to the International Guiding Principles for Biomedical Research Involving Animals.
# A corneal epithelial cell was prepared from rabbit eyeballs. A cornea was excised from isolated eyeballs, and stored in Dulbecco's phosphate buffered saline (D-PBS; Invitrogen), and this was transferred to a clean bench. The following cell preparation procedures were all performed sterilely.
# The isolated corneal segment was washed with D-PBS with 1% penicillin-streptomycin (Invitrogen) added thereto three times, and was transferred to a minimum essential medium (MEM; Invitrogen). A corneal endothelial cell and a Descemet's membrane of the corneal segment immersed in MEM were peeled with a knife (Alcon) for ocular operation, and the corneal segment (corneal stroma and corneal epithelium) after peeling was transferred to MEM to which dispase II (Roche Diagnostics) had been added to 2.4 U/mL. This was incubated at 37° C. for 1 hour and, thereafter, the dispase II-treated corneal segment was transferred to MEM. The corneal epithelium of the corneal segment immersed in MEM was peeled with the knife for ocular operation, and the corneal segment residue (corneal stroma) was removed from MEM. The peeled corneal epithelial cell and the MEM containing same were recovered in a 50 mL centrifuge tube, subjected to centrifugation at 1,500 rpm for 5 minutes at room temperature. The supernatant was discarded to give a corneal epithelial cell layer. To the corneal epithelial cell layer was added 1 mL of trypsin-EDTA (Invitrogen) and, after thorough mixing, the cells were incubated at 37° C. for 5 minutes to dissociate adhesion between the cells. To this was added 9 mL of MEM containing 10% fetal bovine serum (FBS; Invitrogen) to stop the enzymatic reaction, and this was subjected again to centrifugation at room temperature and 1,500 rpm for 5 minutes to obtain the corneal epithelial cell layer. To the resulting corneal epithelial cell layer was added […] of a serum-free liquid medium for proliferating a normal rabbit corneal epithelial cell (RCGM2; Kurabo Industries LTD.) to suspend the cell, and this was seeded into a culture dish (IWAKI) for culturing a cell having a diameter of 10 cm, to which 9 mL of RCGM2 had been added. […] The culture medium was exchanged with a fresh culture medium every 48 hours until the test day.
# As the test substance, the following compounds were used. • PPARα agonist: WY-14643 (Calbiochem) and fenofibrate (Sigma-Aldrich) • PPARδ agonist: L-165041 (Sigma-Aldrich)
# For studying the effect of promoting cell proliferation by each test substance, a culture medium prepared by removing a mouse-derived epithelial growth factor (mEGF) attached to RCGM2, from RCGM2, was used as a basal medium, while as a positive control for confirming the effect of promoting cell proliferation, a medium with an mEGF added thereto (basal medium+10 ng/mL mEGF) was used according to instructions of an RCGM2 preparation protocol.
# As a culture dish for a test of cell proliferation promotion, a 96-well culture dish for tissue culture (Corning) was used. On the day before the test, each 50 μL of 0.01% type I collagen (Nitta Gelatin Inc.) was dispensed into each well of the culture dish, and coating was performed at 4° C. until immediately before the test. On the test day, after a type I collagen solution was removed, the bottom of the culture dish was washed three times using D-PBS, and this was used in the test as a collagen-treated culture dish.
# In the test, a rabbit corneal epithelial cell which had been cultured to subconfluent in a culture dish having a diameter of 10 cm was used. After the culture medium was removed, the bottom of the culture dish was washed two times using D-PBS, to this was added 1 mL of trypsin-EDTA, this was incubated at 37° C. for 5 minutes and thereby, the cell was peeled from the bottom of the culture dish. […]
structure (smiles),measurement,setting,value
"CCCc1c(OCCCOc2ccc(OCC(=O)O)cc2)ccc(C(C)=O)c1O [L-165041, (4-(3-(4-acetyl-3-hydroxy-2-propyl)phenoxy)propoxyphenoxy)acetic acid]",cell proliferation compared to the no addition group (in words),[1]; 10^−6 M,significantly higher than in the no addition group
same,Cell proliferation (%),[1]; 10^−6 M,169.1 ± 19.6%
same,Cell proliferation (%),[1]; 10^−7 M,142.9 ± 22.3%
same,Cell proliferation (%),[2]; 10^−7 M,127.8 ± 6.0%
same,Cell proliferation (%),[2]; 10^−8 M,128.1 ± 5.3%
same,Cell proliferation (%),[3]; 10^−6 M,182.2 ± 13.0%
same,Cell proliferation (%),[3]; 10^−7 M,163.3 ± 8.2%

# — US9096538B2, “Pharmaceutical comprising PPAR agonist” (Senju Pharmaceutical Co., Ltd., priority 2005, dated 2015)
